# Measurements published in US8377903B2, “Cladribine regimen for treating multiple sclerosis” (Merck Serono SA, priority 2004, dated 2013).
# How the values were obtained:
# [1] = test system: patients with remitting-relapsing multiple sclerosis; details: 6 monthly courses of 5 days, total dose about 4-5.7 mg/kg, cited from earlier work
# [2] = test system: patients with relapsing forms of clinically definite multiple sclerosis; assay: Oral Cladribine in the treatment of relapsing forms of MS (Example 1 protocol); type: in vivo, human
# Text: The efficacy and safety of oral Cladribine administration, eventually multi-dose administration, according to the invention can be assessed for example following the protocol below:
# A study of sixty patients with relapsing forms of clinically definite multiple sclerosis is undertaken. Each patient is first examined for normal hepatic, renal, and bone marrow functioning to establish baseline values.
# Patients are selected from Male or Female, between 18 and 55 years of age who had one or more relapses within the prior 12 months. Female patients are non-pregnant female.
# Each of the patients in Groups 2 and 3 receives 3 mg or 10 mg 2-CdA (1, 2 or 3 administration(s) a day depending on the patient's weight) combined in cyclodextrin formulation as described in WO 2004/087101, Example 3. The Compositions of the Cladribine formulations in 3 mg or 10 mg 2-CdA tablets containing hydroxypropyl-beta-cyclodextrin are listed in Table 2 below:
# In Group 1 patients receive a placebo (saline) for 4 months followed by 8 months of no treatment.
# Patients are monitored to determine whether there is any progression or improvement of brain lesions associated with progression of MS through MRI scans and neurological examination as described in Miller et al., 1996, above; Evans et al., 1997, above; Sipe et al., 1984, above; and Mattson, 2002, above. All patients have a baseline and MRI study (brain or spinal cord, according to localization of the lesions) at month 12.
# The patient's disability progression and the time for having a first relapse are monitored as well as the proportion of relapse-fee patients at 24 months.
# Lymphocyte markers and monocyte counts are monitored in the patients.
# [3] = test system: patients with multiple sclerosis; details: with the highest doses; i.v. or s.c.; cited from earlier work
# [4] = test system: patients with Chronic Progressive MS and Relapsing-Remitting MS; details: Phase II; 0.1 mg/kg/day i.v. 7 days x 4 months or 0.07 mg/kg/day s.c. 5 days x 6 months; cited from earlier work
# [5] = test system: patients with primary progressive (PP) or secondary progressive (SP) multiple sclerosis; details: Phase III; 0.07 mg/kg/day s.c., repeated for 2 or 6 months; cited from earlier work
# [6] = oral, succession of an induction treatment and maintenance treatments
compound,measurement,setting,value
"Nc1nc(Cl)nc2c1ncn2[C@H]1C[C@H](O)[C@@H](CO)O1 [Cladribine, 2-chloro-2′ deoxyadenosine]",therapeutic efficacy of oral regimen versus i.v. infusion therapy,[1],questioned
same,side effects versus i.v. infusion study,[1]; oral,less severe
same,brain lesions (MRI scans),[2]; Groups 2 and 3: oral 2-CdA total dose 1.75 mg/kg or 3.5 mg/kg,decrease in brain lesions
same,adverse effects,[2]; [6],no severe adverse effect is observed
same,efficacy of regimen on brain lesions,[2]; [6],efficient in decreasing brain lesions
same,adverse effects (AEs),[3],increased incidence of infections related to compromised immune function or myelosuppression
same,"effects on EDSS, SNRS scores and MRI findings",[4],positive effects
same,MRI-measured brain lesions,[5],positive on the significant reduction of MRI-measured brain lesions
